Test results: US12168659B2, “Thioamide derivative and preparation method and application thereof” (Yunbaiyao Zhengwu Science and Technology (Shanghai) Co., …, priority 2022, dated 2024)

What was measured:
[1] = target: MEK1 (Homo sapiens, UniProt Q02750); test: Raf-MEK-ERK cascade kinase assay using recombinant protein (MEK1); format: biochemical; settings: 10 μM ATP, active B-Raf (V599E), 30° C. 30 minutes
Protocol: (§1) Experimental purpose: The inhibitory activity of the compounds on MEK1 and MEK2 was measured by performing a Raf-MEK-ERK cascade kinase assay using recombinant protein.
(§2) Experimental method: 2 mg of dephosphorylated myelin basic protein (MBP) was dispersed in a 0.2 M sodium carbonate aqueous solution (pH=9.4). The mixed solution was then coated onto an enzyme-linked immunosorbent assay (ELISA) plate (U-shaped bottom plate) and left to stand overnight at 4° C. […] Compound solutions with serial concentrations were tested in triplicate wells. A mixture of 2 ng of inactivated MEK1 (or 4 ng of MEK2) and 50 ng of inactivated ERK2 was dissolved in a buffer solution (20 mM MOPS [pH=7.4], 0.1% 2-mercaptoethanol, 0.1% BSA) at room temperature, and then treated with the above serial solutions on a flat plate. The plate was covered with 1% bovine serum albumin (BSA) and pre-incubated for 10 minutes. […] After incubation at 30° C. for 30 minutes, phosphorylation of MBP by ERK was detected using peroxidase-labeled anti-phosphorylated MBP antibodies. Data curves were plotted and half maximal inhibitory concentration (IC50) values were calculated using XLFit.

[2] = system: human colon cancer cells (HCT-15); test: Anti-proliferative activity, CCK-8 assay, HCT-15; format: cell-based; settings: 72 h incubation
Protocol: (§3) Experimental procedure: Sample solutions with a concentration of 20 μM were prepared and serially diluted 5-fold downwards to obtain 10 concentrations: 20000 nM, 4000 nM, 800 nM, 160 nM, 32 nM, 6.4 nM, 1.28 nM, 0.256 nM, 0.0512 nM and 0.01024 nM. The sample solutions were incubated with the above cell lines for 72 h. Then 10 μL of a CCK-8 solution was then added to each well, followed by a further 2 hours incubation. An optical density (OD) value was measured at 450 nm using a fully automated microplate reader. Data were processed using GraphPad Prism 7 to calculate IC50.

[3] = system: human malignant melanoma cells (A375); test: Anti-proliferative activity, CCK-8 assay, A375; format: cell-based; settings: A-375, 72 h incubation
Protocol: as §3

[4] = system: human non-small cell lung cancer cells (A549); test: Anti-proliferative activity, CCK-8 assay, A549; format: cell-based; settings: 72 h incubation
Protocol: as §3

[5] = target: MEK2 (Homo sapiens, UniProt P36507); test: Raf-MEK-ERK cascade kinase assay using recombinant protein (MEK2); format: biochemical; settings: 10 μM ATP, active B-Raf (V599E), 30° C. 30 minutes
Protocol: as §1, §2

[6] = system: human prostate cancer cells (PC-3); test: Anti-proliferative activity, CCK-8 assay, PC-3; format: cell-based; settings: 72 h incubation
Protocol: as §3

[7] = system: human colon cancer cells (HCT116); test: Anti-proliferative activity, CCK-8 assay, HCT116; format: cell-based; settings: HCT-116, 72 h incubation
Protocol: as §3

[8] = system: human HCT116 subcutaneous xenograft tumors; test: In vivo anti-tumor assay, subcutaneous xenograft model; parameters: species or system BALB/c nude mouse; settings: 3 mg/kg P.O. QD × 30 days; for Tumor growth inhibition, tumor volume change (FIG. 2): compared to the Trametinib group
Protocol: Experimental purpose: To evaluate the in vivo efficacy of the compounds in a subcutaneous xenograft model of human cancer cells in a Bagg's albino (BALB/c) nude mouse.
The tumor suppressive efficacy of the compounds was quantified by TGI (%) or relative tumor proliferation rate T/C (%). TGI (%) reflected the tumor growth inhibition rate. TGI(%) was calculated using the following equation: TGI(%)=[1−(mean tumor volume at the end of treatment in a treatment group-mean tumor volume at the start of treatment in the treatment group)/(mean tumor volume at the end of treatment in the solvent control group-mean tumor volume at the start of treatment in the solvent control group)]×100%.
T/C(%) was calculated using the following equation: T/C (%)=TRTV/CRTV×100%, where TRTV was an RTV of the treatment group, and CRTV was an RTV of the negative control group. The RTV was calculated from the results of tumor size measurements according to the following equation: RTV=Vt/V0, where V0 was a mean tumor volume measured on the day of first administration (i.e., day 0), Vt was a mean tumor volume measured on the day indicated, and TRTV and CRTV were obtained from data on the same day.

[9] = Body weight change of experimental mice in the xenograft study; settings: 3 mg/kg gavage, 30 days
Source text: Experimental procedure: The study evaluated the inhibitory effect of compounds administered by gavage against human HCT116 subcutaneous xenograft tumors in the BALB/c nude mouse model by measuring tumor size and calculating tumor volume (TV), relative tumor volume (RTV), relative tumor proliferation rate (T/C), and anti-tumor efficacy (TGI).

Chain of MEK2 (P36507 whole entry): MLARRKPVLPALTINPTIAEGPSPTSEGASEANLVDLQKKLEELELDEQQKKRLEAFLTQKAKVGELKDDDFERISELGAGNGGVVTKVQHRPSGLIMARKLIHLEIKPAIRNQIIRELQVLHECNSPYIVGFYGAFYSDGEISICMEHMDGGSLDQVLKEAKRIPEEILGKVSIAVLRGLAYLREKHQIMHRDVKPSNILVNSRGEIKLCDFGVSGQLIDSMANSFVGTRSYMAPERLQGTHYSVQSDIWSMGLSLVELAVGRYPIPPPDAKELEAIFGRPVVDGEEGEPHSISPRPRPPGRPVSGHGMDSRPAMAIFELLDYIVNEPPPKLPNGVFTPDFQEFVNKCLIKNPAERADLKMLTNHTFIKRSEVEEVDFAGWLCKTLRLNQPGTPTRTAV
Chain of MEK1 (Q02750 whole entry): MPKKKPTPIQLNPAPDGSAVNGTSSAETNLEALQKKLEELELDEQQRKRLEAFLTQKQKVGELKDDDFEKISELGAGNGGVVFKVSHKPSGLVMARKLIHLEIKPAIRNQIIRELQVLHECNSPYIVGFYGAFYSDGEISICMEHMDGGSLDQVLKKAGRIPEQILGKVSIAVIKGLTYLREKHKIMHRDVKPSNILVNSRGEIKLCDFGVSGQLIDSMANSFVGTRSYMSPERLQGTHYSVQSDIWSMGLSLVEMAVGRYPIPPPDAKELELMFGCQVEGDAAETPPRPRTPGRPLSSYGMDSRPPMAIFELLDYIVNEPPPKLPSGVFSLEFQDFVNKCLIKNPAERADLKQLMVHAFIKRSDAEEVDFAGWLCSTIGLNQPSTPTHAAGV

Structure (SMILES) | IC50 [1] [nM] | IC50 [2] [nM] | IC50 [3] [nM] | IC50 [4] [nM] | IC50 [5] [nM] | IC50 [6] [nM] | IC50 [7] [nM] | TGI (tumor growth inhibition rate) [8] [%] | Tumor volume (Day 30) [8] [mm^3] | T/C (relative tumor proliferation rate) [8] [%] | Tumor growth inhibition, tumor volume change (FIG. 2) [8] | Weight loss at the end of the experiment / toxicity (FIG. 1) [9]
Cc1c(=O)n(C)c(Nc2ccc(I)cc2F)c2c(=O)n(C3CC3)c(=O)n(-c3cccc(NC(=S)C(C)C)c3)c12 [Compound 7] | 0.95 | 24.2 | 4.3 | 2.8 | 1.01 | 2.1 | 2.7 |  |  |  |  | 
CC(=O)Nc1cccc(-n2c(=O)n(C3CC3)c(=O)c3c(Nc4ccc(I)cc4F)n(C)c(=O)c(C)c32)c1 [Trametinib, reference compound] |  | 98.3 | 12.5 | 33.2 |  | 12.6 | 32.7 | 89.80 | 305 ± 34 |  |  | 
Cc1c(=O)n(C)c(Nc2ccc(I)cc2F)c2c(=O)n(C3CC3)c(=O)n(-c3cccc(NC(=S)C(=O)O)c3)c12 [Compound 13] | 2.38 | 31.7 | 4.2 | 6.4 | 2.64 | 4.5 | 5.2 |  |  |  |  | 
CC(=S)Nc1cccc(-n2c(=O)n(C(C)C)c(=O)c3c(Nc4ccc(I)cc4F)n(C)c(=O)c(C)c32)c1 [Compound 3] | 0.9 | 14.8 | 2.5 | 1.5 | 0.98 | 1.9 | 2.1 |  |  |  |  | 
Cc1c(=O)n(C)c(Nc2ccc(I)cc2F)c2c(=O)n(C3CC3)c(=O)n(-c3cccc(NC(=S)C4CC4)c3)c12 [Compound 6] | 1.88 | 13.9 | 2.9 | 3.9 | 1.24 | 2.8 | 1.6 |  |  |  |  | 
CC(=S)Nc1cccc(-n2c(=O)n(C3CC3)c(=O)c3c(Nc4ccc(I)cc4F)n(C)c(=O)c(C)c32)c1 [Compound 2] | 1.83 | 12.6 | 3.1 | 3.1 | 2.13 | 3.6 | 2.6 | 98.72 | 165 ± 21 | 9.62 | better inhibitory effects | toxicity of Trametinib was higher than that of compounds 2, 8 and 12
Cc1c(=O)n(C)c(Nc2ccc(I)cc2F)c2c(=O)n(C3CC3)c(=O)n(-c3cccc(NC(=S)CO)c3)c12 [Compound 8] | 1.57 | 25.8 | 4.7 | 5.8 | 2.08 | 2.4 | 4.2 | 100.32 | 140 ± 26 | 8.17 | better inhibitory effects | toxicity of Trametinib was higher than that of compounds 2, 8 and 12
Cc1c(=O)n(C)c(Nc2ccc(I)cc2F)c2c(=O)n(C3CC3)c(=O)n(-c3cccc(NC(=S)CN)c3)c12 [Compound 12] | 1.51 | 22.7 | 3.1 | 3.1 | 2.13 | 2.3 | 3.6 | 101.08 | 128 ± 19 | 7.47 | better inhibitory effects | toxicity of Trametinib was higher than that of compounds 2, 8 and 12
CC(=S)Nc1ccc(F)c(-n2c(=O)n(C3CC3)c(=O)c3c(Nc4ccc(I)cc4F)n(C)c(=O)c(C)c32)c1 [Compound 9] | 2.29 | 21.6 | 2.8 | 4.4 | 2.26 | 1.9 | 5.2 |  |  |  |  | 
CC(=S)Nc1cccc(-n2c(=O)n(C3CCCC3)c(=O)c3c(Nc4ccc(I)cc4F)n(C)c(=O)c(C)c32)c1 [Compound 4] | 1.36 | 9.8 | 3.9 | 2.4 | 1.05 | 1.4 | 1.6 |  |  |  |  | 
CC(=S)Nc1cc(-n2c(=O)n(C3CC3)c(=O)c3c(Nc4ccc(I)cc4F)n(C)c(=O)c(C)c32)ccc1F [Compound 11] | 1.37 | 21.8 | 2.4 | 3.4 | 1.54 | 2.7 | 3.1 |  |  |  |  | 
CC(=S)Nc1cc(F)cc(-n2c(=O)n(C3CC3)c(=O)c3c(Nc4ccc(I)cc4F)n(C)c(=O)c(C)c32)c1 [Compound 10] | 2.01 | 14.9 | 1.8 | 8.5 | 2.07 | 2.3 | 6.4 |  |  |  |  | 
CC(=S)Nc1cccc(-n2c(=O)n(C)c(=O)c3c(Nc4ccc(I)cc4F)n(C)c(=O)c(C)c32)c1 [Compound 1] | 1.21 | 15.4 | 3.5 | 2.6 | 1.09 | 2.4 | 2.9 |  |  |  |  | 
CCC(=S)Nc1cccc(-n2c(=O)n(C3CC3)c(=O)c3c(Nc4ccc(I)cc4F)n(C)c(=O)c(C)c32)c1 [Compound 5] |  | 20.1 | 2.6 | 3.6 | 1.19 | 3.3 | 3.8 |  |  |  |  | 
